The GI50 is the concentration at which growth is held to half of that of the control.

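Where inhibition never reached the appropriate level, the endpoint shown equals the highest concentration tested. Otherwise, values were interpolated linearly from a five-concentration, 48-hour dose response in 96-well plates. GI50 marks 50% less growth.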 The source made the active and inactive calls. Cut-off read from the data, not from the text of the source: active = GI50 up to about 1.1 µM and inactive = higher. Some results are limits rather than exact numbers.

The text below walks through data of ChEMBL document CHEMBL1201862, “PubChem BioAssay data set” (2004).

Among the test systems are MDA-MB-435; IGROV-1; NCI-H522; Hs-578T; SN12C; KM12; MCF7; EKVX; SNB-75; HOP-92; BT-549; TK-10; NCI/ADR-RES; HT-29; SF-295; HL-60; DU-145; U-251; NCI-H460.
Holding throughout (assay): DTP human tumour cell line panel, 48 h

With `NS(=O)(=O)c1ccc(NCc2cccc3c(=O)c4ccc(Cl)cc4oc23)cc1`, the GI50 in the assay on MDA-MB-435 is 19.7 µM (inactive); with IGROV-1, 20.2 µM (inactive); in the assay with NCI-H522 it was > 39.2 µM (inactive); in the assay on Hs-578T, 20 µM (inactive); in the assay on SN12C, > 56.6 µM (inactive); with KM12, 21.4 µM (inactive). The GI50 was 8.34 µM (inactive) in the assay with MCF7; > 33.8 µM (inactive) in the assay on EKVX; 37.8 µM (inactive) in the assay on SNB-75; 12.6 µM (inactive) with HOP-92; 42.5 µM (inactive) in the assay with BT-549; > 72.9 µM (inactive) in the assay with TK-10. For the same compound, the GI50 was 32.5 µM (inactive) in the assay on NCI/ADR-RES; 31.4 µM (inactive) with HT-29; 59.4 µM (inactive) in the assay on SF-295; 3.68 µM (inactive) with HL-60; 30.3 µM (inactive) with DU-145; 23.8 µM (inactive) with U-251.

On to `COC(=O)c1cc2c(o1)Sc1ccccc1NC2=O`, for which the GI50 in the assay with MDA-MB-435 was > 100 µM (inactive); in the assay with IGROV-1, > 100 µM (inactive); in the assay with NCI-H522, 2.75 µM (inactive); in the assay on Hs-578T it was 27.7 µM (inactive); with NCI-H460 it was > 100 µM (inactive); with SN12C, > 100 µM (inactive). The GI50 is > 100 µM (inactive) with KM12; > 100 µM (inactive) in the assay on MCF7; 24.8 µM (inactive) in the assay on SNB-75; > 100 µM (inactive) in the assay on HOP-92; > 100 µM (inactive) in the assay on BT-549; > 100 µM (inactive) with TK-10. In addition, the GI50 with NCI/ADR-RES is > 100 µM (inactive); in the assay on HT-29, > 100 µM (inactive); in the assay on SF-295, > 100 µM (inactive); in the assay with HL-60, > 100 µM (inactive); in the assay on DU-145, > 100 µM (inactive); in the assay on U-251, 83.2 µM (inactive).

`Cc1ccc(C)c(COCCOCn2cc(N3CCOCC3)c(=O)[nH]c2=O)c1`: the GI50 was > 100 µM (inactive) in the assay with MDA-MB-435; > 100 µM (inactive) in the assay with IGROV-1; > 100 µM (inactive) in the assay on NCI-H522; 54.6 µM (inactive) with Hs-578T; > 100 µM (inactive) with NCI-H460; > 100 µM (inactive) in the assay on SN12C. The GI50 in the assay with KM12, in the assay on MCF7, with EKVX, with SNB-75, in the assay on HOP-92 and in the assay on BT-549 was > 100 µM (inactive) throughout. Further, the GI50 is > 100 µM (inactive) in the assay with TK-10; > 100 µM (inactive) in the assay with NCI/ADR-RES; > 100 µM (inactive) with SF-295; 3.63 µM (inactive) in the assay with HL-60; > 100 µM (inactive) in the assay with DU-145; > 100 µM (inactive) with U-251.

For the compound `Nc1cc(C(=O)O)nc(O)n1`, the GI50 in the assay with MDA-MB-435, in the assay on IGROV-1, in the assay on NCI-H522, with Hs-578T, in the assay on NCI-H460 and in the assay with SN12C was > 100 µM (inactive) each time. Besides, the GI50 in the assay on KM12, in the assay with MCF7, in the assay with EKVX, in the assay with HOP-92, with BT-549 and in the assay on TK-10 was > 100 µM (inactive) throughout. For the same compound, the GI50 in the assay with NCI/ADR-RES, in the assay with HT-29, in the assay on SF-295, in the assay with HL-60, in the assay on DU-145 and in the assay with U-251 was > 100 µM (inactive) throughout.

Take `COc1cc(/C=C/C=C2\CC(C)C/C(=C\C=C\c3ccc(O)c(OC)c3)C2=O)ccc1O` (centres undefined): the GI50 was 8.32 µM (inactive) with MDA-MB-435; 8.41 µM (inactive) in the assay with IGROV-1; 0.522 µM (active) in the assay with NCI-H522; 10 µM (inactive) in the assay with Hs-578T; 14.5 µM (inactive) with NCI-H460; 31.3 µM (inactive) in the assay with SN12C. In addition, the GI50 with KM12 is 31.7 µM (inactive); in the assay with MCF7, 5.6 µM (inactive); in the assay on EKVX, 10.3 µM (inactive); with SNB-75 it was 15.1 µM (inactive); in the assay on HOP-92, 7.23 µM (inactive); with BT-549, 8.61 µM (inactive). In addition, the GI50 with TK-10 was 3.05 µM (inactive); in the assay on NCI/ADR-RES it was 25.1 µM (inactive); in the assay on HT-29, 4.08 µM (inactive); with HL-60, 7.35 µM (inactive); in the assay on DU-145, 19.5 µM (inactive); in the assay with U-251 it was 12.1 µM (inactive).

`C=C1CC=CC(C)(C)C1C/C=C(\C)C(O)CBr` (centres undefined): the GI50 in the assay on MDA-MB-435 was 39.9 µM (inactive); in the assay with IGROV-1 it was 19.7 µM (inactive); in the assay with NCI-H522, 4.2 µM (inactive); in the assay on Hs-578T, > 100 µM (inactive); in the assay with NCI-H460 it was 95.7 µM (inactive); with SN12C, > 100 µM (inactive). Moreover, the GI50 in the assay on KM12 was 77.1 µM (inactive); in the assay with MCF7, 36.2 µM (inactive); with EKVX, > 100 µM (inactive); in the assay with HOP-92, 30.9 µM (inactive); with BT-549 it was 97.3 µM (inactive); with TK-10 it was 89.9 µM (inactive). For the same compound, the GI50 in the assay with NCI/ADR-RES is 19.2 µM (inactive); in the assay with HT-29, 51.8 µM (inactive); in the assay on SF-295, > 100 µM (inactive); in the assay with HL-60, 32.4 µM (inactive); in the assay on DU-145, 45.4 µM (inactive); with U-251, 30.1 µM (inactive).

`O=C(O)c1c(O)c2cc(Br)ccc2oc1=O`: the GI50 with MDA-MB-435, with IGROV-1, in the assay with NCI-H522, in the assay with Hs-578T, in the assay on NCI-H460 and in the assay with SN12C was > 100 µM (inactive) in each case. Further, the GI50 with MCF7 is > 100 µM (inactive); with EKVX, > 100 µM (inactive); in the assay with SNB-75 it was > 100 µM (inactive); in the assay with HOP-92 it was 72.1 µM (inactive); in the assay on BT-549 it was > 100 µM (inactive); with TK-10, > 100 µM (inactive). Also, the GI50 in the assay with NCI/ADR-RES, with HT-29, in the assay on SF-295, with HL-60, in the assay with DU-145 and in the assay with U-251 was > 100 µM (inactive) each time.

Take `C[C@H](CCC(=O)O)[C@H]1CC[C@H]2[C@@H]3[C@H](O)[C@H](O)[C@@H]4C[C@H](O)CC[C@]4(C)[C@H]3CC[C@]12C` [HYOCHOLIC ACID]: the GI50 in the assay with MDA-MB-435, with IGROV-1, in the assay on NCI-H522, in the assay on Hs-578T, with NCI-H460 and in the assay with SN12C was > 100 µM (inactive) each time. Besides, the GI50 in the assay with KM12, in the assay with MCF7, with EKVX, in the assay with SNB-75, in the assay on HOP-92 and with BT-549 was > 100 µM (inactive) each time. The GI50 in the assay on TK-10, in the assay with NCI/ADR-RES, in the assay on HT-29, in the assay on HL-60, with DU-145 and in the assay on U-251 was > 100 µM (inactive) each time.
